For the experiment, the system named is histone deacetylase (HDAC). Description: cellular acetylation assay (histone acetylation ELISA in PC3 cells). It is filed as cell-based. The following applies: PC3 human prostate carcinoma cells, compound 1 μM, 24 h incubation, ELISA with antibodies against acetylated histone H3 or H4. The method, then:
Therein acetylation of histones is monitored in PC3 cells. High acetylation correlates with inhibition of histone deacetylase by compounds. Cell viability is monitored in parallel to estimate the cytotoxicity of compounds.
PC3 cells, a human prostate carcinoma cell line, are seeded as 1800 cells per well of a 384-well microtiterplate in RPMI 1640 (including 5% FCS, 2 mM glutamine and pen/strep). After 48 h at 37° C. pre-diluted compounds are added to a final concentration of 1 uM. Compounds are pre-diluted in dimethyl sulfoxide (DMSO) resulting in a final concentration of DMSO of 0.5% per well.
After 24 h incubation cell viability is determined by adding cell proliferation reagent WST-1 (Roche Molecular Biochemicals). Another 60 min later the optical density (OD) is measured (450 nm versus 690 nm).
After measurement the cell layer is prepared for the ELISA reaction. Medium is aspirated and cells are fixed in ethanol at −20° C. for 60 min. After washing with PBS/Tween the blocking solution (PBS/5% FCS/Tween) is added and the cell layer is washed again. Antibodies against acetylated histone H3 or H4 (rabbit polyklonal IgG, Upstate Biotechnologie) are added at a dilution of 1:200 for 60 min at 37° C. As a second antibody goat anti rabbit IgG (H+L) humanIgG adsorbed-HRP conjugate (Dako) is used (1:2000 diluted). Cells are washed 3 times and the peroxidase substrate ABTS is allowed to react for 30–60 min at 37° C. The OD is measured at 405 nm.
The percentage of acetylation is calculated after substraction of blank O.D.s: […]
(In general: ELISA stands for enzyme-linked immunosorbent assay.)

As for `CC(=O)Nc1ccc(C(=O)Nc2ccccc2N)cc1` [4-acetylamino-N-(2-amino-phenyl)-benzamide, reference compound], the “cell acetylation (PC3, 1 μM) [% of control]” value is 152 % of control.

Regarding `Nc1ccccc1NC(=O)c1ccc(CON=Cc2ccccc2)s1` [4–6, 5-Benzylideneaminooxymethyl-thiophene-2-carboxylic acid (2-amino-phenyl)-amide], the “cell acetylation (PC3, 1 μM) [% of control]” value is recorded as 180 % of control.

In the case of `Nc1ccccc1NC(=O)c1ccc(CON=C2Cc3ccccc3C2)s1` [4–7, 5-(Indan-2-ylideneaminooxymethyl)-thiophene-2-carboxylic acid (2-amino-phenyl)-amide], the “cell acetylation (PC3, 1 μM) [% of control]” value is 182 % of control.

For `COc1ccc(C(C)=NOCc2ccc(C(=O)Nc3ccccc3N)s2)cc1OC` [4–9, 5-[1-(3,4-Dimethoxy-phenyl)-ethylideneaminooxymethyl]-thiophene-2-carboxylic acid (2-amino-phenyl)-amide], the “cell acetylation (PC3, 1 μM) [% of control]” value is on record as 158 % of control.

In the case of `COc1ccc(C=NOCc2ccc(C(=O)Nc3ccccc3N)s2)cc1OC` [4–12, 5-(3,4-Dimethoxy-benzylideneaminooxymethyl)-thiophene-2-carboxylic acid (2-amino-phenyl)-amide], the “cell acetylation (PC3, 1 μM) [% of control]” value is listed as 137 % of control.

For the molecule `Nc1ccccc1NC(=O)c1ccc(CON=Cc2ccc(OC(F)(F)F)cc2)s1` [4–17, 5-(4-Trifluoromethoxy-benzylideneaminooxymethyl)-thiophene-2-carboxylic acid (2-amino-phenyl)-amide], the “cell acetylation (PC3, 1 μM) [% of control]” value is 127 % of control.

For `Nc1ccccc1NC(=O)c1ccc(CON=Cc2cccnc2)s1` [4–21, 5-(Pyridin-3-ylmethyleneaminooxymethyl)-thiophene-2-carboxylic acid (2-amino-phenyl)-amide], the “cell acetylation (PC3, 1 μM) [% of control]” value is given as 135 % of control.

For the molecule `Nc1ccccc1NC(=O)c1ccc(CON=Cc2ccc3c(c2)OCCO3)s1` [Example 3, 5-(2,3-Dihydro-benzo[1,4]dioxin-6-ylmethyleneaminooxymethyl)-thiophene-2-carboxylic acid (2-amino-phenyl)-amide], the “cell acetylation (PC3, 1 μM) [% of control]” value is 116 % of control.

Values taken from patent publication US7173060B2, “Oxime derivatives and their use as pharmaceutically active agents” (Hoffmann-La Roche Inc., priority 2003, dated 2007).
